≈ marks a conversion by molar mass, not a printed value. Like-named read-outs stand apart in the source and are kept apart here.
Legend:
[1] = tested on: Pseudomonas aeruginosa; conditions: including carbapenem-resistant strains; cited from earlier work
[2] = tested on: Acinetobacter baumannii; conditions: including carbapenem-resistant strains; cited from earlier work
[3] = biological target: T1, OXA 24/40 (Acinetobacter baumannii, UniProt Q8RLA6); experiment: β-lactamase inhibition, spectrophotometric assay of nitrocefin hydrolysis; assay type: biochemical
T1 construct: made in house
T1 sequence (Q8RLA6 22-275): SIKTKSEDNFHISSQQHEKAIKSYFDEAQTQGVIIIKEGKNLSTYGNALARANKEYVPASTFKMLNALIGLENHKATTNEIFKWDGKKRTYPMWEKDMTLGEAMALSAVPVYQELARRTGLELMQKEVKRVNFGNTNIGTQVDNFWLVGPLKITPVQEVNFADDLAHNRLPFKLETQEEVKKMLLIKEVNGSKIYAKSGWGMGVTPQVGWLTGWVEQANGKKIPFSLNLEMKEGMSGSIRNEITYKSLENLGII
Text: (§1) Hydrolytic inactivation of the β-lactam antibiotics by β-lactamases is the most widespread drug resistant mechanism and the most challenge clinically among Gram-negative bacterial pathogens. Based on the amino acid sequences, the β-lactamases are grouped into four classes (Ambler classification), of which A, C and D are serine hydrolases and B encompasses metallo-β-lactamases. The IC50 of selected derivatives disclosed herein (identified with reference to example number) plus six reference β-lactam or β-lactamase inhibitors were determined against 7 representative β-lactamases of various classes in a standard spectrophotometric assay of nitrocefin hydrolysis. The assay is performed in 384-well plate. The seven recombinant β-lactamases AmpC_AB (from A. baumannii), AmpC_PA (from P. aeruginosa), KPC-2, NDM-1, IMP-1, VIM-1 and OXA 24/40) are expressed and purified. The reaction buffer for class A, C and D enzymes is 100 mM Na2HPO4—KH2PO4 (pH 7.1) plus 0.005% Tween-20, and for class B enzymes 10 μM ZnSO4 is added. […] The 50 μL of reaction solution composed of 2 pM of β-lactamase, 200 μM of nitrocefin and series of 3-fold dilutions of test or control compounds are added by Cybio SELMA system into 384-plate and incubated in dark at 25° C. for 2 hours. The OD490 is read in MC SpectraMax Plus384 plate reader.

[4] = biological target: T2, KPC-2 (Klebsiella pneumoniae, UniProt Q9F663); experiment: as above; assay type: biochemical
T2 construct: made in house
T2 sequence (Q9F663 25-293, looked up, species assumed): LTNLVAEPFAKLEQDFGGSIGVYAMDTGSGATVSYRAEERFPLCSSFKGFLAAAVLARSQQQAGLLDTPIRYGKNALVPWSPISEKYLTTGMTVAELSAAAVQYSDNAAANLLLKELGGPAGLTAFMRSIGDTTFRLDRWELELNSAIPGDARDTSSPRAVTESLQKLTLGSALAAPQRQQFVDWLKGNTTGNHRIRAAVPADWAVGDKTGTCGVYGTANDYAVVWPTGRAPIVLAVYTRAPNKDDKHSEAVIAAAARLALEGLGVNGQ
Text: as §1

[5] = biological target: AmpC_AB (Acinetobacter baumannii, UniProt Q6DRA1); experiment: as above; assay type: biochemical
Text: as §1

[6] = biological target: T3, IMP-1 (Serratia marcescens, UniProt P52699); experiment: as above; assay type: biochemical
T3 construct: made in house
T3 sequence (P52699 19-246, looked up, species assumed): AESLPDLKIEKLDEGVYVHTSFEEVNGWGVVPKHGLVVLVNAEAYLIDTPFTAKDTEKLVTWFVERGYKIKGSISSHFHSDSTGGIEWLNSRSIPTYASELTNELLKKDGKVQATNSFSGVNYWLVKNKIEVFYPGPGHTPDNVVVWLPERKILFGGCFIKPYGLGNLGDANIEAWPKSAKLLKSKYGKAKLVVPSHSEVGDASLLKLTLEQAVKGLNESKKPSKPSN
Text: as §1

[7] = biological target: T4, VIM-1 (Pseudomonas aeruginosa, UniProt A0A0F7KYQ8); experiment: as above; assay type: biochemical
T4 construct: made in house
Text: as §1

[8] = biological target: T5, NDM-1 (Klebsiella pneumoniae, UniProt C7C422); experiment: as above; assay type: biochemical
T5 construct: made in house
T5 sequence (C7C422 29-270, looked up, species assumed): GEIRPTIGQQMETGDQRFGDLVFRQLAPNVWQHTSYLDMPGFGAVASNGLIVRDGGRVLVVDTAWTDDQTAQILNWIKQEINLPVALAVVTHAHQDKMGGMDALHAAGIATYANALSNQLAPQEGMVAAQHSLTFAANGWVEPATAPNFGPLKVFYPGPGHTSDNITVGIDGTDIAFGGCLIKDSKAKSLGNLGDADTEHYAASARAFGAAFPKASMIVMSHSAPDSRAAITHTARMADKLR
Text: as §1

[9] = tested on: A.b TNP 41708; experiment: MIC against A. baumannii clinical isolates, alone and in combination with antibiotics; assay type: cell-based; conditions: for MIC: Acinetobacter baumannii, TNP41708, read-out: MIC A.b TNP 41708
Procedure, shortened: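 Inoculum set at […]. MICs come from broth microdilution run according to CLSI, minor modifications applied.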

[10] = tested on: A.b TNP 41704; experiment: as above; assay type: cell-based; conditions: for MIC: Acinetobacter baumannii
[11] = tested on: A.b TNP 41709; experiment: as above; assay type: cell-based; conditions: for MIC: Acinetobacter baumannii
[12] = tested on: E. faecium ATCC 700221; experiment: MIC determination, broth microdilution, ESKAPE panel; assay type: cell-based; conditions: Enterococcus faecium
Procedure, shortened: (§2)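 MIC read by broth microdilution following CLSI guidance, with minor changes. Each well received a bacterial inoculum of […].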

[13] = tested on: P. aeruginosa ATCC 27853; experiment: as above; assay type: cell-based; conditions: Pseudomonas aeruginosa
Procedure, shortened: as §2

[14] = tested on: Escherichia coli ATCC 25922; experiment: as above; assay type: cell-based
Procedure, shortened: as §2

[15] = tested on: A. baumannii ATCC 19606; experiment: as above; assay type: cell-based; conditions: Acinetobacter baumannii
Procedure, shortened: as §2

[16] = tested on: S. aureus ATCC 29213; experiment: as above; assay type: cell-based; conditions: Staphylococcus aureus
Procedure, shortened: as §2

[17] = tested on: K. pneumoniae ATCC 43816; experiment: as above; assay type: cell-based; conditions: Klebsiella pneumoniae
Procedure, shortened: as §2

[18] = biological target: T6, AmpC_PA (Pseudomonas aeruginosa, UniProt P24735); experiment: β-lactamase inhibition, spectrophotometric assay of nitrocefin hydrolysis; assay type: biochemical, P. aeruginosa
T6 construct: made in house
T6 sequence (P24735 27-397): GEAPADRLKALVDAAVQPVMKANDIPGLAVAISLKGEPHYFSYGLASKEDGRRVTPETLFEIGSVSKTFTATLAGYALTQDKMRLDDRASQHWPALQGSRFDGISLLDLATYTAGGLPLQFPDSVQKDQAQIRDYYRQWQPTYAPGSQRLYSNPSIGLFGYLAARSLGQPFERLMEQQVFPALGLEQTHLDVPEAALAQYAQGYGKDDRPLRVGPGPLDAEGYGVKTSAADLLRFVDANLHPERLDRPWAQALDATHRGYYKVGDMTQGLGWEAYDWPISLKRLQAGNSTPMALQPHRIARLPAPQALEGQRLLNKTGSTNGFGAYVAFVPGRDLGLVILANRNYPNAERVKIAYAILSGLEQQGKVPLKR
Text: as §1

[19] = class A β-lactamase, 200 μM nitrocefin, 25° C., 2 hours, read-out: IC50 KPC-2
[20] = Class C β-lactamase, 200 μM nitrocefin, 25° C., 2 hours, read-out: IC50 AmpC_AB
[21] = class B β-lactamase, 10 μM ZnSO4, 200 μM nitrocefin, 25° C., 2 hours, read-out: IC50 IMP-1
[22] = class B β-lactamase, 10 μM ZnSO4, 200 μM nitrocefin, 25° C., 2 hours, read-out: IC50 VIM-1
[23] = class B β-lactamase, 10 μM ZnSO4, 200 μM nitrocefin, 25° C., 2 hours, read-out: IC50 NDM-1
[24] = TNP41704, Compounds alone, read-out: MIC A.b TNP 41704
[25] = TNP41709, Compounds alone, read-out: MIC A.b TNP 41709
[26] = ATCC700221, iron-depleted cation-adjusted Mueller-Hinton broth, 2,2-dipyridyl 160 μM, 37° C., 18-20 hours, read-out: MIC E. faecium ATCC 700221
[27] = ATCC27853, iron-depleted cation-adjusted Mueller-Hinton broth, 2,2-dipyridyl 160 μM, 37° C., 18-20 hours, read-out: MIC P. aeruginosa ATCC 27853
[28] = ATCC25922, iron-depleted cation-adjusted Mueller-Hinton broth, 2,2-dipyridyl 160 μM, 37° C., 18-20 hours, read-out: MIC E. coli ATCC 25922
[29] = ATCC19606, iron-depleted cation-adjusted Mueller-Hinton broth, 2,2-dipyridyl 160 μM, 37° C., 18-20 hours, read-out: MIC A. baumannii ATCC 19606
[30] = ATCC29213, iron-depleted cation-adjusted Mueller-Hinton broth, 2,2-dipyridyl 160 μM, 37° C., 18-20 hours, read-out: MIC S. aureus ATCC 29213
[31] = ATCC43816, iron-depleted cation-adjusted Mueller-Hinton broth, 2,2-dipyridyl 160 μM, 37° C., 18-20 hours, read-out: MIC K. pneumoniae ATCC 43816

| Compound | IC50 [3] [µM] | IC50 [4, 19] [µM] | IC50 [5, 20] [µM] | IC50 [6, 21] [µM] | IC50 [7, 22] [µM] | IC50 [8, 23] [µM] | MIC [9] [µg/mL] | MIC A.b TNP 41708 ([9]; Compounds + meropenem (1:1)) [µg/mL] | MIC A.b TNP 41708 ([9]; Compounds + sulbactam (1:1)) [µg/mL] | MIC [10, 24] [µg/mL] | MIC A.b TNP 41704 ([10]; Compounds + meropenem (1:1)) [µg/mL] | MIC A.b TNP 41704 ([10]; Compounds + sulbactam (1:1)) [µg/mL] | MIC [11, 25] [µg/mL] | MIC A.b TNP 41709 ([11]; Compounds + meropenem (1:1)) [µg/mL] | MIC A.b TNP 41709 ([11]; Compounds + sulbactam (1:1)) [µg/mL] | MIC [12, 26] [µg/mL] | MIC [13, 27] [µg/mL] | MIC [14, 28] [µg/mL] | MIC [15, 29] [µg/mL] | IC50 [18] [µM] | other results |
| --- | --- | --- | --- | --- | --- | --- | --- | --- | --- | --- | --- | --- | --- | --- | --- | --- | --- | --- | --- | --- | --- |
| CC(C)(O/N=C(\C(=O)N[C@@H]1C(=O)N2C(C(=O)[O-])=C(C[N+]3(CCNC(=O)c4ccc(O)c(O)c4Cl)CCCC3)CS[C@H]12)c1csc(N)n1)C(=O)O [Cefiderocol] |  |  |  |  |  |  |  |  |  |  |  |  |  |  |  |  |  |  |  |  | antibacterial activity against Pseudomonas aeruginosa [1]: potent antibacterial activity; antibacterial activity against Acinetobacter baumannii [2]: potent antibacterial activity |
| C[C@]1(/C=N/NC(=O)CNC(=O)c2ccc(O)c(O)c2)[C@H](C(=O)O)N2C(=O)C[C@H]2S1(=O)=O [Example 64, (2S,3R,5R)-3-((E)-(2-(2-(3,4-dihydroxybenzamido)acetyl)hydrazono)methyl)-3-methyl-7-oxo-4-thia-1-azabicyclo[3.2.0]heptane-2-carboxylic acid 4,4-dioxide] | 5.77 | > 200 | 0.474 | > 200 | > 200 | > 200 | > 128 | 4 | 8 | > 128 | 2 | 4 | > 128 | 2 | 4 | > 128 | > 128 | > 128 | 8 (≈ 17.6 µM) | 0.641 | MIC [16, 30]: 64 µg/mL (≈ 141 µM); MIC [17, 31]: 128 µg/mL (≈ 282 µM) |
| C[C@]1(/C=N/NC(=O)c2ccc(O)c(O)c2)[C@H](C(=O)O)N2C(=O)C[C@H]2S1(=O)=O [Example 5, (2S,3R,5R)-3-((E)-(2-(3,4-dihydroxybenzoyl)hydrazono)methyl)-3-methyl-7-oxo-4-thia-1-azabicyclo[3.2.0]heptane-2-carboxylic acid 4,4-dioxide] | 11.6 | > 200 | 1.04 | > 200 | > 200 | > 200 | > 128 | 4 | 8 | > 128 | 4 | 4 | 32 | 2 | 4 | > 128 | > 128 | 64 (≈ 161 µM) | 4 (≈ 10.1 µM) | 1.72 | MIC [16, 30]: 128 µg/mL (≈ 322 µM); MIC [17, 31]: 32 µg/mL (≈ 80.5 µM) |
| CC1(C)[C@H](C(=O)O)N2C(=O)C[C@H]2S1(=O)=O [Sulbactam, reference compound] | > 200 |  |  |  |  |  | 32 |  |  |  |  |  |  |  |  |  |  |  |  | 10.3 | IC50 [4]: 53.4 µM; IC50 [5]: 10.3 µM; IC50 [6]: > 200 µM; IC50 [7]: > 200 µM; IC50 [8]: > 200 µM; MIC ([10]; TNP41704, read-out: MIC A.b TNP 41704): 8 µg/mL; MIC ([11]; TNP41709, read-out: MIC A.b TNP 41709): 32 µg/mL; MIC ([12]; ATCC700221, read-out: MIC E. faecium ATCC 700221): > 128 µg/mL; MIC ([13]; ATCC27853, read-out: MIC P. aeruginosa ATCC 27853): > 128 µg/mL; MIC ([14]; ATCC25922, read-out: MIC E. coli ATCC 25922): 32 µg/mL (≈ 137 µM); MIC ([15]; ATCC19606, read-out: MIC A. baumannii ATCC 19606): 0.5 µg/mL (≈ 2.14 µM); MIC ([16]; ATCC29213, read-out: MIC S. aureus ATCC 29213): > 128 µg/mL; MIC ([17]; ATCC43816, read-out: MIC K. pneumoniae ATCC 43816): 64 µg/mL (≈ 274 µM) |

From US11040987B2 (TenNor Therapeutics Limited, priority 2019, dated 2021)
